In patent US5068325A, “4,5,7,8-tetrahydro-6H-thiazolo[5,4-d]azepines, their preparation and their use as pharmaceutical compositions” (priority 1988, dated 1991):

Key:
Assay type in all cases: binding
dopamine D1-receptors = biological target: T1, dopamine D1-receptors (Rattus norvegicus, UniProt P18901); assay: affinity for dopamine D1-receptors by displacement experiments with [3H]-Sch 23390
T1 construct: The striata were dissected out, weighed and homogenised in 25 volumes of tris buffer; from tissue; host or cells: rat striatum membranes (Chbb:Thom strain), prepared as for the D2 assay
Protocol: Male rats (of the Chbb:Thom strain weighing about 200 g) were killed by a blow to the back of the neck. The brains were removed and dissected on ice. The striata were dissected out, weighed and homogenised in 25 volumes of tris buffer (50 mM tris-HCl, 1 mM EDTA, 5 mM MgCl2 and 1 mM ascorbic acid) for 30 seconds in an Ultra-Turrax at maximum speed, followed by 10 cycles in a Potter-Elvehjem at 1400 rpm. The pellet obtained after centrifuging at 50,000×g at 4° C. for 15 minutes was again taken up in 25 ml of tris buffer and centrifuged under the above conditions. The supernatant was discarded and the pellet obtained was incubated in 25 ml of tris buffer at 37° C. for 30 minutes and then centrifuged again at 50,000×g at 4° C. for 15 minutes. Finally, the pellet obtained was mixed with tris buffer to obtain a homogenate dilution of 1:500 (based on the weight of the striata).
Displacement curves were obtained from the data using the TOPFIT programming package (G. Heinzel in "Pharmacokinetics During Drug Development: Data Analysis and Evaluation Techniques", G. Bozler and J. M. van Rossum Eds., G. Fischer Verlag, Stuttgart 1982, 207).
7. Determining the affinity for dopamine D1-receptors by displacement experiments with [^3 H1-Sch 23390
The membrane preparation and data analysis were carried out as described for determining the affinity for dopamine D2 - receptors.
1 ml aliquots of the membrane preparation were incubated for 1 hour at ambient temperature with 1 ml of a solution of 0.25 nM [^3 H]-Sch 23390 (2.44 TBq/mmol, Messrs. DuPont NEN) and with increasing concentrations of the test substance (10^-11 to 10^-4 M). Incubation was ended by the addition of 5 ml of ice cold tris buffer and filtration through Whatman GF/B filters. The filters were washed twice, each time with 5 ml of ice cold buffer. The radioactivity of the filters was determined by liquid scintillation measurement in Instagel(R) (Messrs. Canberra Packard).
The non-specific binding was determined in the presence of 10^-6 M (-)-butaclamol (Research Biochemicals Inc.).

[1] = biological target: T2, serotonin-2(5-HT2)-receptors (Rattus norvegicus, UniProt P14842); assay: affinity for serotonin-2 (5-HT2) receptors by displacement experiments with [3H]-spiperone (rat frontal cortex)
T2 construct: The frontal cortex was dissected out and placed in ice cold 0.32 M saccharose solution; from tissue; host or cells: rat frontal cortex homogenate (Chbb:Thom strain)
Protocol: Specific binding is obtained from total binding minus non-specific binding.
A male rat (Chbb:Thom strain, about 200 g) was decapitated. The brain was removed. The frontal cortex was dissected out and placed in ice cold 0.32 M saccharose solution; its moist weight was determined. It was homogenised in 10 times the volume (0.32 M) of saccharose solution for 1 minute at 800 rpm in a Potter S (made by Braun of Melsungen). The homogenised material was centrifuged for 10 minutes at 1000×g (=3,000 rpm with a rotor 8×38 ml) in a refrigerated centrifuge. The supernatant was decanted off and homogenised (Polytron, position 5, 1 minute); the sediment was discarded. 5 ml (=0.5 g moist weight) of the tissue suspension thus obtained were made up to 40 ml with buffer (50 mm tris-HCl; pH=7.7 at ambient temperature).
0.8 ml of the buffered homogenised tissue (=10 mg moist weight) were incubated with 0.1 ml of a solution of [^3 H]-spiperone (about 0.2 nmol/1 final concentration) and with 0.1 ml of a solution of the test substance (increasing concentration) for 15 minutes at 37° C. (triple measurement). Incubation was stopped by rapid filtering through a Whatman GF/B filter; rinsing was carried out 3 times, each time with 5 ml of ice cold buffer within a maximum of 10 seconds (Filter Prep Messrs. Ismatec). The radioactivity of the filters was determined by liquid scintillation measurement.
The specific binding is obtained from the total binding minus the non-specific binding. The averages of the triple measurements are entered in a system of coordinates as in 1.3. The IC50 value is the concentration which inhibits the specific binding of [^3 H]-spiperone by 50%.

alpha-2 receptors = biological target: T3, alpha-2 receptors (Rattus norvegicus, UniProt P22909); assay: affinity for alpha-2 receptors by displacement experiments with [3H]-clonidine (rat cortex membranes); conditions: read-out: α2-IC50
T3 sequence (P22909 1-465): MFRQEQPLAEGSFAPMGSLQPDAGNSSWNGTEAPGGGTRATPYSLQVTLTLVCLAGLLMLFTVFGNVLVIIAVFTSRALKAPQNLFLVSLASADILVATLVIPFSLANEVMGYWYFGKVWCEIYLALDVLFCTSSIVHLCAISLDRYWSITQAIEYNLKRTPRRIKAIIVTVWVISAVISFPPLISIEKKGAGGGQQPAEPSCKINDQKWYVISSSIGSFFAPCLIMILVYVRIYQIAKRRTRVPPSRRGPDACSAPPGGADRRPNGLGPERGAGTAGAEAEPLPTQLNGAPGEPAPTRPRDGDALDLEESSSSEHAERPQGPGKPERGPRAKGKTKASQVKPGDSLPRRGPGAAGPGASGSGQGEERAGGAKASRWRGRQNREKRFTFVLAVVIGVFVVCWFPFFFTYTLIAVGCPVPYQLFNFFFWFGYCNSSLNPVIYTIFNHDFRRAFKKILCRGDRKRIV
Protocol: Determination of the affinity for alpha-2 receptors by displacement experiments with [^3 H] clonidine (Modified Method of B. Jarrott, W. J. Louis and R. J. Summers, Biochem. Pharmacol. 27, 141 (1979))
A male rat (Chbb:Thom strain weighing about 200 g) was killed by a blow to the back of the neck. The brain was removed and the cortex dissected out, weighed and homogenised in 25 volumes of tris buffer (50 mM tris- HCl, pH 7.50) for 30 seconds in an Ultra-Turrax at maximum speed, followed by 10° Cycles in a Potter- Elvehjem at 1400 rpm. The homogenised material was combined with tris buffer to obtain a homogenate dilution of 1:50 (based on the weight of the cortex).
1 ml aliquots of the membrane preparation were incubated for three hours at ambient temperature with 1 ml of a solution of 1 nM of [^3 H]-clonidine (2.2 TBq/mmol, Messrs. DuPont NEN) and with increasing concentrations of the test substance (10^-11 to 10^-4 M). Incubation was ended by the addition of 5 ml of ice-cold tris buffer and filtration through Whatman GF/B filters. The filters were washed twice, each time with 5 ml of ice cold buffer. The radioactivity of the filters was determined by liquid scintillation measurement in Instagel(R) (Messrs. Canberra Packard). The non-specific binding was determined in the presence of 10^-5 M of oxymetazoline (Sigma Chemical Co.).

T2 sequence (P14842 whole entry): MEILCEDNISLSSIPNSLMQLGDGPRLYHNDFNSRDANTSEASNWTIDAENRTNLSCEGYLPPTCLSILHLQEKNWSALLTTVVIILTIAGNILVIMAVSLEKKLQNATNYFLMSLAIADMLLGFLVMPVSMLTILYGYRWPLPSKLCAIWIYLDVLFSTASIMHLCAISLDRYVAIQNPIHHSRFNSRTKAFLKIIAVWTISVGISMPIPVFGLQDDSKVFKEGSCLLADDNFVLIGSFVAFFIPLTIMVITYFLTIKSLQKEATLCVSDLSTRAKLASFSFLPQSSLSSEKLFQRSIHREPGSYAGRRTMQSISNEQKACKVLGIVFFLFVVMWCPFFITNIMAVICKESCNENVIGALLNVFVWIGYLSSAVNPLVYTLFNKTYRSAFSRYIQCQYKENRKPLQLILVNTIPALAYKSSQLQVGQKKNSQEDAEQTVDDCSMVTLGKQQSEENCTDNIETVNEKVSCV
T1 sequence (P18901 whole entry): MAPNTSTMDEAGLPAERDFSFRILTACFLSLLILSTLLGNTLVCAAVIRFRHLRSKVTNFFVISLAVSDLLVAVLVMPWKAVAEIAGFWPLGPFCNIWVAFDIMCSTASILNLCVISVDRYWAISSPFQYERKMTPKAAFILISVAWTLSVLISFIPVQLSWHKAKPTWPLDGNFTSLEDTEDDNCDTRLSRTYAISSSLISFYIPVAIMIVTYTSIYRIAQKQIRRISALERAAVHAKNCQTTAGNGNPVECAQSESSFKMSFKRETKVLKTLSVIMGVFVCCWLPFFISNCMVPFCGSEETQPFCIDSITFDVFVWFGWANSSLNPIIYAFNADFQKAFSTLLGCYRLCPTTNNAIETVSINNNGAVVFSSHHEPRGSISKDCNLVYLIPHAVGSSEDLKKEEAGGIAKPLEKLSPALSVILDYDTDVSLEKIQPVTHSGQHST

Row | SMILES | Ki (dopamine D1-receptors) [nM] | Ki [1] [nM] | IC50 (alpha-2 receptors) [nM]
1 | C=CCN1CCc2nc(N)sc2CC1 [Compound A, reference compound] | 12000 | 20200 | 24
2 | N#Cc1ccc(C=CCN2CCc3nc(N)sc3CC2)cc1 [Example 14b, 2-Amino-6-(3-(4-cyano-phenyl)allyl)-4,5,7,8-tetrahydro-6H-thiazolo[5,4-d]azepine] | – | 15000 | 500
3 | Nc1nc2c(s1)CCN(CC=Cc1ccccc1N1CCCCC1)CC2 [Example 11p, 2-Amino-6-(3-(2-(1-piperidino)phenyl)-2-propen-1-yl)-4,5,7,8-tetrahydro-6H-thiazolo[5,4-d]azepine] | 920 | 558 | 3000
4 | Nc1nc2c(s1)CCN(Cc1ccc(Cl)cc1)CC2 [Compound B, reference compound] | 11000 | 18400 | 410
5 | Nc1nc2c(s1)CCN(CC=Cc1cccc(OCc3ccccc3)c1)CC2 [Example 4y, 2-Amino-6-(3-(3-benzyloxy-phenyl)allyl)-4,5,7,8-tetrahydro-6H-thiazolo[5,4-d]azepine] | 1500 | 470 | 300
6 | Nc1nc2c(s1)CCN(CC=Cc1cc3ccccc3cn1)CC2 [Example 24a, 2-Amino-6-(3-(3-isoquinolinyl)allyl)-4,5,7,8-tetrahydro-6H-thiazolo[5,4-d]azepine] | 3000 | 560 | 900
7 | Nc1nc2c(s1)CCN(CC=Cc1cccc3ccccc13)CC2 [Example 4t, 2-Amino-6-(3-(1-naphthyl)allyl)-4,5,7,8-tetrahydro-6H-thiazolo[5,4-d]azepine] | 210 | 26 | 460
8 | Nc1nc2c(s1)CCN(CC=Cc1nccc3ccccc13)CC2 [Example 7a, 2-Amino-6-(3-(1-isoquinolinyl)allyl)-4,5,7,8-tetrahydro-6H-thiazolo[5,4-d]azepine] | 180 | 120 | 3100
